Legend:
An. albimanus = assay: Minimum Effective Dosage (MED) test on treated cloth, mosquito repellency; type: in vivo, Anopheles albimanus; conditions: Table 4, highest concentration 1.500 mg/cm^2; for An. albimanus Minimum Effective Dosage, M4: subject M4; for An. albimanus Minimum Effective Dosage, M5: subject M5; for An. albimanus Minimum Effective Dosage, M8: subject M8; for An. albimanus Minimum Effective Dosage, M9: subject M9; for An. albimanus Minimum Effective Dosage, M10: subject M10
Ae. aegypti [1] = assay: as above; type: in vivo, Aedes aegypti; conditions: for mosquito repellent activity against Ae. aegypti (in words): MED test on treated cloth; for Ae. aegypti Minimum Effective Dosage, M9: human subject M9; for Ae. aegypti Minimum Effective Dosage, M10: human subject M10; for Ae. aegypti Minimum Effective Dosage, F1: human subject F1; for Ae. aegypti Minimum Effective Dosage, M1: human subject M1; for Ae. aegypti Minimum Effective Dosage, M2: human subject M2; for Ae. aegypti Minimum Effective Dosage, Average: mean of 3 volunteers
Experimental: Bioassay for mosquito repellent activity: Repellency screening test for experimental chemicals were carried out to identify candidates that might be useful repellents. The repellent efficacy was compared to that of the standard repellent, DEET. Experimental compounds were assessed in one of two ways: (1) a range of concentration was evaluated to determine the minimum effective dosage (MED) which was the concentration threshold of where the repellent began to fail and allowed bites, or (2) a predetermined concentration of each repellent was applied to cloth and the activity was evaluated over several days (or in some cases months) (Katritzky, A. R., et al., Proc. Nat. Acad. Sci. (US), 105, 7359-7364 (2008); Katritzky, A. R., et al., Journal of Med. Entomol., 47: 924-938 (2010)). When conducting assays for repellency, a failure point was also predetermined for those measurements. Since experiments described herein used about 500 female mosquitoes per test, the failure point was set at 1% (equal to 5 bites) received during a test interval. From 3 to 5 volunteers participated in the screening of each set of chemicals.
Minimum Effective Dosage (MED) Test: The MED bioassays on treated cloth were a method of screening to determine the minimum amount of a repellent needed to prevent bites. Experimental compounds were prepared in solution by combining 0.15 g of experimental chemical with 2 mL of acetone in a 7.1 mL screwtop glass vial. This solution was then serially diluted to obtain nine concentrations when applied on to the cloth patch: 1.5, 0.75, 0.375, 0.187, 0.094, 0.047, 0.023, 0.011, and 0.006 mg/cm^2. The standard N,N-diethyl-3-methylbenzamide (DEET) was also tested at the same concentration levels to serve as a control and a comparison for relative repellency. A 50 cm^2 (5 cm×10 cm) patch of muslin cloth was rolled lengthwise and placed into each of the glass vials and scaled with a screwtop so it soaked up the solution. Just prior to the experiment, the pieces of treated cloth were removed from the vials, affixed to card stock tabs (5 cm×3 cm) with staples, and hung with masking tape on a rack to dry and allow acetone to evaporate. Volunteers wore a latex glove over their hands, a nylon stocking over their arm, and then wrapped a plastic Velcro-sealed sleeve over their entire forearm with a 32 cm^2 (4 cm×8 cm) window cut-out to allow mosquitoes to bite through. The nylon stocking acted as a barrier between the dried cloth and the skin, an additional precaution with experimental compounds. Dried cloth patches were stretched across the window in the plastic sleeve and held in place with masking tape. Volunteers placed their sleeve-covered arms into a screened cage for a one minute period with approximately 500 female Ae. aegypti mosquitoes that had been preselected for host-seeking behavior using a draw box (Posey, K. H., and C. E. Schreck, Mosquito News, 41: 566-568 (1981)). […] The MED recorded was the lowest passing concentration level tested for the experimental compound. […] All human volunteers in the study provided informed consent to participate of a protocol approved by the University of Florida Human Use Institutional Review Board (IRB #636-2005).

Ae. aegypti [2] = assay: Complete Protection Time test on treated cloth (duration of protection); type: in vivo, Aedes aegypti; conditions: Dosage 0.75 mg/cm^2 on cloth
Experimental: Bioassay for mosquito repellent activity: Repellency screening test for experimental chemicals were carried out to identify candidates that might be useful repellents. The repellent efficacy was compared to that of the standard repellent, DEET. Experimental compounds were assessed in one of two ways: (1) a range of concentration was evaluated to determine the minimum effective dosage (MED) which was the concentration threshold of where the repellent began to fail and allowed bites, or (2) a predetermined concentration of each repellent was applied to cloth and the activity was evaluated over several days (or in some cases months) (Katritzky, A. R., et al., Proc. Nat. Acad. Sci. (US), 105, 7359-7364 (2008); Katritzky, A. R., et al., Journal of Med. Entomol., 47: 924-938 (2010)). When conducting assays for repellency, a failure point was also predetermined for those measurements. Since experiments described herein used about 500 female mosquitoes per test, the failure point was set at 1% (equal to 5 bites) received during a test interval. From 3 to 5 volunteers participated in the screening of each set of chemicals. Complete Protection Time Test: Complete protection time (CPT) on treated cloth is a method of screening that is used to determine the repellent duration for experimental chemicals that have not been examined for safe use on humans. The standard repellent DEET was used as a positive control as a benchmark by which to compare the repellents. Experimental compounds were prepared in solution by combining 0.075 g of experimental chemical with 1 mL of acetone in a 7.1-mL screwtop glass vial. The same concentration level of DEET was also prepared in this way to serve as a control and a comparison for relative repellency. A 50 cm^2 (5 cm×10 cm) patch of muslin cloth was rolled lengthwise and placed into each of the glass vials and sealed with a screwtop so it soaked up the solution. Just prior to the experiment, the pieces of treated cloth were removed from the vials, affixed to card stock tabs (5 cm×3 cm) with staples, and hung with masking tape on a rack to dry and allowed the volatile acetone to evaporate. Similar to the MED tests, volunteers wore a latex glove over their hands, a nylon stocking over their arm, and then wrapped a plastic Velcro-sealed sleeve over their entire forearm with a 32 cm^2 (4 cm×8 cm) window cut-out to allow mosquitoes to bite through. Dried cloth patches were stretched across the window in the plastic sleeve and held in place with masking tape. Volunteers placed their sleeve-covered arms into a screened cage for a one minute period with approximately 500 female Ae. aegypti mosquitoes that had been preselected for host-seeking behavior using a draw box. A cloth patch that received a 1% bite through level, equal to 5 mosquitoes that bit out of 500 mosquitoes, was considered a failure at that concentration. If 0-4 bites were received, then the treated cloth was still considered to be repellent at that concentration. The duration was recorded as the number of days an experimental chemical received a passing result, with day 0 being the day the sample was first dried. […] As with the tests conducted to determine CPT, volunteers in the study provided informed consent (IRB protocol #636-2005). The protocol was approved by the University of Florida Human Use Institutional Review Board.

[3] = Table 1 preliminary assay, human subject M4, highest concentration 1.500 mg/cm^2
[4] = Table 1 preliminary assay, human subject M5, highest concentration 1.500 mg/cm^2
[5] = Table 1 preliminary assay, human subject M8, highest concentration 1.500 mg/cm^2
[6] = Table 1 preliminary assay, highest concentration 1.500 mg/cm^2
[7] = Table 5, subject M4, highest dose 0.375 mg/cm2 (0.187 for 7)
[8] = Table 5, subject M5, highest dose 0.375 mg/cm2 (0.187 for 7)
[9] = Table 5, subject M8, highest dose 0.375 mg/cm2 (0.187 for 7)
[10] = Table 2, highest concentration 1.500 mg/cm^2

Structure (SMILES) | mosquito repellent activity against Ae. aegypti (in words) (Ae. aegypti [1]) | Ae. aegypti Minimum Effective Dosage, M4 (Ae. aegypti [1]; [7]) | Ae. aegypti Minimum Effective Dosage, M5 (Ae. aegypti [1]; [8]) | Ae. aegypti Minimum Effective Dosage, M8 (Ae. aegypti [1]; [9]) | Ae. aegypti Minimum Effective Dosage, F1 (Ae. aegypti [1]; [10]) | Ae. aegypti Minimum Effective Dosage, M1 (Ae. aegypti [1]; [10]) | Ae. aegypti Minimum Effective Dosage, M2 (Ae. aegypti [1]; [10]) | also measured
CC(=O)c1ccc2c(c1O)C=CC(C)(C)O2 [Compound 3] | least repellent |  |  |  |  |  |  | An. albimanus Minimum Effective Dosage, M4 (An. albimanus): 0.094 mg/cm^2; An. albimanus Minimum Effective Dosage, M5 (An. albimanus): >1.500 mg/cm^2; An. albimanus Minimum Effective Dosage, M8 (An. albimanus): >1.500 mg/cm^2; An. albimanus Minimum Effective Dosage, M9 (An. albimanus): 0.375 mg/cm^2; An. albimanus Minimum Effective Dosage, M10 (An. albimanus): >1.500 mg/cm^2; Ae. aegypti Minimum Effective Dosage, M4 (Ae. aegypti [1]; [3]): >1.500 mg/cm^2; Ae. aegypti Minimum Effective Dosage, M5 (Ae. aegypti [1]; [4]): 0.187 mg/cm^2; Ae. aegypti Minimum Effective Dosage, M8 (Ae. aegypti [1]; [5]): >1.500 mg/cm^2; Ae. aegypti Minimum Effective Dosage, M9 (Ae. aegypti [1]; [6]): >1.500 mg/cm^2; Ae. aegypti Minimum Effective Dosage, M10 (Ae. aegypti [1]; [6]): >1.500 mg/cm^2
COc1ccc(CO)c2c1C=CC(C)(C)O2 [Compound 4] | mixed results |  |  |  |  |  |  | An. albimanus Minimum Effective Dosage, M4 (An. albimanus): >1.500 mg/cm^2; An. albimanus Minimum Effective Dosage, M5 (An. albimanus): >1.500 mg/cm^2; An. albimanus Minimum Effective Dosage, M8 (An. albimanus): >1.500 mg/cm^2; An. albimanus Minimum Effective Dosage, M9 (An. albimanus): 0.750 mg/cm^2; An. albimanus Minimum Effective Dosage, M10 (An. albimanus): >1.500 mg/cm^2; Ae. aegypti Minimum Effective Dosage, M4 (Ae. aegypti [1]; [3]): >1.500 mg/cm^2; Ae. aegypti Minimum Effective Dosage, M5 (Ae. aegypti [1]; [4]): 0.375 mg/cm^2; Ae. aegypti Minimum Effective Dosage, M8 (Ae. aegypti [1]; [5]): 0.375 mg/cm^2; Ae. aegypti Minimum Effective Dosage, M9 (Ae. aegypti [1]; [6]): 0.750 mg/cm^2; Ae. aegypti Minimum Effective Dosage, M10 (Ae. aegypti [1]; [6]): >1.500 mg/cm^2
COC(=O)c1ccc2c(c1)C=CC(C)(C)O2 [Compound 5] | mixed results |  |  |  |  |  |  | An. albimanus Minimum Effective Dosage, M4 (An. albimanus): 0.187 mg/cm^2; An. albimanus Minimum Effective Dosage, M5 (An. albimanus): 0.375 mg/cm^2; An. albimanus Minimum Effective Dosage, M8 (An. albimanus): >1.500 mg/cm^2; An. albimanus Minimum Effective Dosage, M9 (An. albimanus): 0.187 mg/cm^2; An. albimanus Minimum Effective Dosage, M10 (An. albimanus): 0.750 mg/cm^2; Ae. aegypti Minimum Effective Dosage, M4 (Ae. aegypti [1]; [3]): >1.500 mg/cm^2; Ae. aegypti Minimum Effective Dosage, M5 (Ae. aegypti [1]; [4]): 0.375 mg/cm^2; Ae. aegypti Minimum Effective Dosage, M8 (Ae. aegypti [1]; [5]): 0.187 mg/cm^2; Ae. aegypti Minimum Effective Dosage, M9 (Ae. aegypti [1]; [6]): 0.375 mg/cm^2; Ae. aegypti Minimum Effective Dosage, M10 (Ae. aegypti [1]; [6]): >1.500 mg/cm^2
COC(=O)c1cccc2c1C=CC(C)(C)O2 [Compound 6] | ineffective at the highest dosage tested | >0.375 mg/cm^2 | >0.375 mg/cm^2 | >0.375 mg/cm^2 |  |  |  | 
CC1(C)C=Cc2cc(CO)ccc2O1 [Compound 7] | ineffective | >0.187 mg/cm^2 | >0.187 mg/cm^2 | >0.187 mg/cm^2 |  |  |  | 
COC(=O)c1ccc2c(c1)OC(C)(C)C=C2 [Compound 8] | ineffective | >0.375 mg/cm^2 | >0.375 mg/cm^2 | >0.375 mg/cm^2 |  |  |  | 
COC(=O)Cc1ccc2c(c1)C=CC(C)(C)O2 [Compound 10] |  | >0.375 mg/cm^2 | >0.375 mg/cm^2 | >0.375 mg/cm^2 | 0.375 mg/cm^2 | 0.750 mg/cm^2 | 0.375 mg/cm^2 | Ae. aegypti Minimum Effective Dosage, Average (Ae. aegypti [1]; Table 2): 0.500 mg/cm^2
CC1(C)C=Cc2ccc(Cl)cc2O1 [Compound 12] |  |  |  |  | 0.750 mg/cm^2 | 0.750 mg/cm^2 | 0.750 mg/cm^2 | Ae. aegypti Minimum Effective Dosage, Average (Ae. aegypti [1]; Table 2): 0.750 mg/cm^2
COC(=O)c1ccc(Cl)c2c1C=CC(C)(C)O2 [Compound 14, Methyl 8-chloro-2,2-dimethyl-2H-chromene-5-carboxylate] |  |  |  |  | >1.500 mg/cm^2 | >1.500 mg/cm^2 | >1.500 mg/cm^2 | 
CC1(C)C=Cc2cccc(Cl)c2O1 [Compound 15] |  |  |  |  | 0.094 mg/cm^2 | 0.094 mg/cm^2 | 0.187 mg/cm^2 | Ae. aegypti Minimum Effective Dosage, Average (Ae. aegypti [1]; Table 2): 0.125 mg/cm^2
COC(=O)c1c(Cl)ccc2c1C=CC(C)(C)O2 [Compound 16] |  |  |  |  | >1.500 mg/cm^2 | >1.500 mg/cm^2 | >1.500 mg/cm^2 | 
CC1(C)C=Cc2cc(Cl)ccc2O1 [Compound 17] |  |  |  |  |  |  |  | Duration of protection, Proportion to DEET (Ae. aegypti [2]): 0.50; Duration of protection against Ae. aegypti, M-3 Days Protection (Ae. aegypti [2]; subject M-3): 1 days
COCc1cccc2c1C=CC(C)(C)O2 [Compound 18, 5-(methoxymethyl)-2,2-dimethyl-2H-chromene] | diminished repellent activity | 0.047 mg/cm^2 | 0.047 mg/cm^2 | 0.187 mg/cm^2 |  |  |  | Ae. aegypti Minimum Effective Dosage, Average (Ae. aegypti [1]; Table 5): 0.094 mg/cm^2
COCCc1ccc2c(c1)C=CC(C)(C)O2 [Compound 19, 6-(2-methoxyethyl)-2,2-dimethyl-2H-chromene] | did not show any improvement of activity | >0.375 mg/cm^2 | >0.375 mg/cm^2 | >0.375 mg/cm^2 |  |  |  | 

— patent publication US9763444B2, “Compositions and methods for repelling blood-sucking and biting insects, ticks and mites” (The United States of America, as represented by the …, priority 2013, dated 2017)
